Experimental data from article PMC2677626, “How β-Lactam Antibiotics Enter Bacteria: A Dialogue with the Porins” (PLoS ONE, 2009).

Biological target: T1, OmpC (Escherichia coli, UniProt P06996)
T1 construct: OmpC porin in planar lipid bilayer
Test: single-channel ion current blockage in planar lipid bilayer
Format: binding
Conditions: data not shown in paper; same pattern as Omp36

T1 sequence (P06996 22-367): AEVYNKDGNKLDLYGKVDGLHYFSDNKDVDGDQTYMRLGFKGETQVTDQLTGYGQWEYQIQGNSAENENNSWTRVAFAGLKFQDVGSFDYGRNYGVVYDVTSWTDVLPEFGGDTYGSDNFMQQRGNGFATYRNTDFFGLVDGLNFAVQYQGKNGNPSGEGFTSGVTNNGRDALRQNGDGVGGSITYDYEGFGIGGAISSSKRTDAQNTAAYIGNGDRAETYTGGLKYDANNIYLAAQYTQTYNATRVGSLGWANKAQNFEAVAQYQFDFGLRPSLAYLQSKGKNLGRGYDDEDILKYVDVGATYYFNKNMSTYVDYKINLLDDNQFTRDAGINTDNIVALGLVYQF

SMILES | single-channel ion current blockage in planar lipid bilayer
CO/N=C(\C(=O)N[C@@H]1C(=O)N2C(C(=O)[O-])=C(C[N+]3(C)CCCC3)CS[C@H]12)c1csc(N)n1 [cefepime] | showed the same pattern of interaction with ertapenem, cefepime, ceftazidime and ampicillin (data not shown)
C[C@@H](O)[C@H]1C(=O)N2C(C(=O)O)=C(S[C@@H]3CN[C@H](C(=O)Nc4cccc(C(=O)O)c4)C3)[C@H](C)[C@H]12 [ertapenem] | showed the same pattern of interaction with ertapenem, cefepime, ceftazidime and ampicillin (data not shown)
